Data published in patent publication US20070009532A1 (priority 2005, published 2007).

Legend:
P450 isoenzyme 3A4 = P450 isoenzyme 3A4 (Homo sapiens, UniProt P08684); details: cited from earlier work
P-gp = target: T1, P-gp (Homo sapiens, UniProt P08183); test: substrate for P-gp efflux / duration of reversal activity in resistant cells; format: cell-based
T1 construct: relatively long duration of reversal activity in resistant cells even after the modulator has been withdrawn; endogenous in cells

[1] = pharmacokinetic interaction with co-administered oncolytics in preclinical models; format: in vivo; details: several oncolytics tested in preclinical models

Sequence of P450 isoenzyme 3A4 (P08684 whole entry): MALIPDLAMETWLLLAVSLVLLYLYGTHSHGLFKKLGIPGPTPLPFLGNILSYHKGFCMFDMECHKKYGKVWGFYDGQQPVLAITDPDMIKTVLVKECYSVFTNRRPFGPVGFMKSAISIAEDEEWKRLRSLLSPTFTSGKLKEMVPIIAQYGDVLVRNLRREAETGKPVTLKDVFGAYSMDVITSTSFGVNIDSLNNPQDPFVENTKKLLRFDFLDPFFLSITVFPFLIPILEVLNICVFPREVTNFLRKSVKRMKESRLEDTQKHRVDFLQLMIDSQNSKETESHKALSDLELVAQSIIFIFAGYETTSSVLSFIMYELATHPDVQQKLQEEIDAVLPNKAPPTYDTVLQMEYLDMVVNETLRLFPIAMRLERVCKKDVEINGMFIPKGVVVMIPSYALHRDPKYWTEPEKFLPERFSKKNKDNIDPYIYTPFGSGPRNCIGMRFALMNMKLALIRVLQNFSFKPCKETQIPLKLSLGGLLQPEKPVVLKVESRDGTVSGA
T1 sequence (P08183 whole entry): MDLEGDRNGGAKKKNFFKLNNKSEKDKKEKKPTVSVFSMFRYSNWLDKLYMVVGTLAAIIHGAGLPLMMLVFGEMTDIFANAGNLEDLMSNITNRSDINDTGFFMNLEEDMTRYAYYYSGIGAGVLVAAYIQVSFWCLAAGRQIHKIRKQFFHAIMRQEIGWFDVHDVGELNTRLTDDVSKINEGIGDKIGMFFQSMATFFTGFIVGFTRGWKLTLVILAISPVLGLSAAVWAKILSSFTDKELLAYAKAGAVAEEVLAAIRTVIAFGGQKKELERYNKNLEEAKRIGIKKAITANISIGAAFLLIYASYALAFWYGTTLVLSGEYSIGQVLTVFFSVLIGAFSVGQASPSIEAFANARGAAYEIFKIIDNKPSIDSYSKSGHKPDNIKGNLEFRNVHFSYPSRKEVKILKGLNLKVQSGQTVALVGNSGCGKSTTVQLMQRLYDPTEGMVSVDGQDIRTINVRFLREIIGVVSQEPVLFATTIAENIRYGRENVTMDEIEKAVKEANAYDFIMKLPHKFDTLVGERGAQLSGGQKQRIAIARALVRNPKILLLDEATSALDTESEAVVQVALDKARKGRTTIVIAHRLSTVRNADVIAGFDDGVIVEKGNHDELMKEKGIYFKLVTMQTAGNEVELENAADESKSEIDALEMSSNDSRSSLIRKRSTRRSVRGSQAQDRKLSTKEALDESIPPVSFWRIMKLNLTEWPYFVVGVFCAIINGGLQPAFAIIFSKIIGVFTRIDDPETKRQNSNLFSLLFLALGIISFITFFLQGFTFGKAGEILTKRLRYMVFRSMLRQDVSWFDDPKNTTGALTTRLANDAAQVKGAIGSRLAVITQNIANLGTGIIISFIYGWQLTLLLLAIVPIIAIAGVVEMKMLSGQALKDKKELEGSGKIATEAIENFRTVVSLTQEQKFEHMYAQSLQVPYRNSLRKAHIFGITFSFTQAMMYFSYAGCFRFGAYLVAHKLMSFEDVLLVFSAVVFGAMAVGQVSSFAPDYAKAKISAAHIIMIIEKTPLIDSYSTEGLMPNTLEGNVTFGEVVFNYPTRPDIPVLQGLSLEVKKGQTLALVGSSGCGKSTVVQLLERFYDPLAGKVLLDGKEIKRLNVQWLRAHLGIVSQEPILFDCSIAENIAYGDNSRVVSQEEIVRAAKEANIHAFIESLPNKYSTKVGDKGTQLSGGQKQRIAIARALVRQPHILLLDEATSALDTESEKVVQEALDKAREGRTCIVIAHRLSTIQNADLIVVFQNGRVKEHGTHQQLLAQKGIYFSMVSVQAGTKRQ

SMILES	substrate for P450 isoenzyme 3A4 (P450 isoenzyme 3A4)	substrate for P-gp efflux (P-gp)	pharmacokinetic (PK) interactions with oncolytics [1]
COc1cc(C(=O)C(=O)N2CCCC[C@H]2C(=O)OC(CCCc2cccnc2)CCCc2cccnc2)cc(OC)c1OC [biricodar]	substrates for the P450 isoenzyme 3A4	–	–
C/C=C/C[C@@H](C)C(=O)[C@H]1C(=O)N[C@@H](C(C)C)C(=O)N(C)CC(=O)N(C)[C@@H](CC(C)C)C(=O)N[C@@H](C(C)C)C(=O)N(C)[C@@H](CC(C)C)C(=O)N[C@@H](C)C(=O)N[C@H](C)C(=O)N(C)[C@@H](CC(C)C)C(=O)N(C)[C@@H](CC(C)C)C(=O)N(C)[C@@H](C(C)C)C(=O)N1C [valspodar]	substrates for the P450 isoenzyme 3A4	–	–
O[C@@H](COc1cccc2ncccc12)CN1CCN([C@@H]2c3ccccc3[C@@H]3[C@H](c4ccccc42)C3(F)F)CC1 [zosuquidar, (2R)-anti-5-3-[4-(10,11-difluoromethanodibenzosuber-5-y1)piperazin-1-y1]-2-hydroxypropoxy)quinoline]	–	does not appear to be a substrate for P-gp efflux	minimal pharmacokinetic (PK) interactions
